# Measurements from patent US20080221213A1, “Tablets Comprising a High Load of Strontium” (OSTEOLOGIX A/S SYMBION SCIENCE PARK, priority 2005, published 2008).
# Test: Single oral dose pharmacokinetic study in humans (healthy male volunteers), serum strontium by ICP-MS
# Settings: by inverse regression on the dose-AUC model; 95% CI [1.073, 1.115]
compound,measurement,value
O=C([O-])CC(=O)[O-].[Sr+2] [strontium malonate],Bioequivalent dose to 2.0 g strontium ranelate (Protelos) in terms of AUC5 week,1.09 g
